Data as given in US20130109726A1, “SUSTAINED-RELEASE THERAPEUTIC AGENT FOR HYPERTENSION AND RENAL DYSFUNCTION” (TEIJIN PHARMA LIMITED, priority 2010, published 2013).

Legend:
[1] = system: adriamycin-induced nephropathy mouse model; assay: Urine albumin excretion in adriamycin-induced nephropathy mouse model; assay type: in vivo
Method: The effects of the immediate-release and sustained-release administrations of febuxostat in an adriamycin-induced nephropathy mouse model were ascertained. The adriamycin-induced nephropathy model is known as a renal dysfunction model in which lesions occur in glomerular epithelial cells and proteinuria is observed.
Male BALB/cAnNCrlCrlj mice aged 7 weeks were subjected to quarantine for a week or more before used as subjects.
At 8 weeks of age, a 24-hour urine collection was performed and the concentration of albumin in the collected urine was measured by ELISA. The subjects were divided into three groups, such that the amounts of albumin excretion were evenly distributed. Subsequently, the administrations were started. Group 1, a control group, was given tap water. Group 2 was given febuxostat in drinking water. Group 3 was given febuxostat by oral gavage.
The administration in drinking water was performed by giving the subjects access to an aqueous solution of febuxostat ad libitum. In this manner, prolonged drug exposure, i.e, sustained-release administration can be accomplished, as compared to a single oral administration. On the other hand, the oral administration was performed by giving a suspension of febuxostat in 0.5% MC solution by oral gavage via a tube. The blood level of the drug rapidly increases after the administration and diclines soon. Thus, immediate-release administration can be accomplished in this manner. Following the initiation of dosing on the first day, adriamycin was given to mice via tail vein at 10 mg/kg. Then, the administrations were conducted for 5 consecutive days. A 24-hour urine collection was performed 5 days after onset of drug administration and the amount of albumin in the collected urine was measured as previously described.

[2] = system: spontaneously hypertensive rats (SHR); assay: Systolic blood pressure by Tail-Cuff method in spontaneous hypertension model (SHR); assay type: in vivo, rat
Method: The effects of the immediate-release and sustained-release administrations of febuxostat in a spontaneous hypertension model were ascertained. Male spontaneously hypertensive rats (SHR) aged 12 weeks were subjected to quarantine for a week or more before used as subjects. From 13 weeks of age, habituation to blood pressure measurement with a Tail-Cuff sphygmomanometer (BP-2000, Visitech systems, Napa Place, N.C., USA) was performed for two weeks. At 15 weeks of age after the completion of the habituation, blood pressure was measured, and the subjects were divided into three groups (10 subjects in each group), such that the systolic blood pressures were evenly distributed. Subsequently, the administrations were started. Group 1, a control group, was given tap water. Group 2 was given febuxostat in drinking water. Group 3 was given febuxostat by oral gavage.
The administration in drinking water was performed by giving the subjects access to an aqueous solution of febuxostat ad libitum. In this manner, prolonged drug exposure to the blood, i.e, sustained-release administration can be accomplished, as compared to a single oral administration. On the other hand, the oral administration was performed by giving a suspension of febuxostat in 0.5% MC solution (with a concentration of febuxostat of 2 mg/mL) at 5 mL/kg by oral gavage. The blood level of the drug rapidly increases after the administration and diclines soon. Thus, immediate-release administration can be accomplished in this manner. After 18 days of administration, systolic blood pressure was measured by the Tail-Cuff method.

With Cc1nc(-c2ccc(OCC(C)C)c(C#N)c2)sc1C(=O)O [febuxostat, 2-(3-cyano-4-isobutyloxyphenyl)-4-methyl-5-thiazole carboxylic acid] the “Urine albumin excretion (mean±standard error)” value ([1]; Group 2, sustained-release administration, 3 mg/kg/day in drinking water, Day 0) was 0.1 ± 0.1 mg/day, the “Urine albumin excretion (mean±standard error)” value ([1]; Group 2, sustained-release administration, 3 mg/kg/day in drinking water, Day 5, adriamycin 10 mg/kg i.v.) was 9.5 ± 3.9 mg/day and the “Urine albumin excretion (mean±standard error)” value ([1]; Group 3, immediate-release administration, 3 mg/kg/day oral gavage, Day 0) was 0.1 ± 0.1 mg/day. The “Urine albumin excretion (mean±standard error)” value ([1]; Group 3, immediate-release administration, 3 mg/kg/day oral gavage, Day 5, adriamycin 10 mg/kg i.v.) was 18.4 ± 9.7 mg/day, the “amelioration of renal dysfunction, sustained-release versus immediate-release administration” value ([1]; adriamycin-induced nephropathy mice, 5 days of administration) was “renal dysfunction was more effectively ameliorated by administering febuxostat in a sustained-manner” and the “systolic blood pressure (mean±standard error)” value ([2]; Group 2, sustained-release administration, 1.5 mg/kg/day in drinking water, Day 18 of dosing) was 199 ± 3 mmHg. The “systolic blood pressure (mean±standard error)” value ([2]; Group 2, sustained-release administration, 1.5 mg/kg/day in drinking water, Pre-dose) was 203 ± 3 mmHg, the “systolic blood pressure (mean±standard error)” value ([2]; Group 3, immediate-release administration, 10 mg/kg/day oral gavage, Day 18 of dosing) was 217 ± 3 mmHg and the “systolic blood pressure (mean±standard error)” value ([2]; Group 3, immediate-release administration, 10 mg/kg/day oral gavage, Pre-dose) was 201 ± 4 mmHg. The “blood pressure lowering, sustained-release versus immediate-release administration” value ([2]; SHR, 18 days of administration) was “blood pressure was more strongly lowered by administering febuxostat in a sustained-release manner”.
